Measured values reported in patent US5380715A, “Ap4 A as a hypotensive agent” (Fujirebio Inc., priority 1992, dated 1995).
“Also recorded” adds a separate entry of the source. Like-named read-outs stand apart in the source and are kept apart here.

Columns and labels:
[1] = system: rabbit platelet aggregation; assay: Platelet aggregate dispersing effect; format: cell-based; settings: ADP- and PAF-induced; result in words (FIG. 5)
Protocol: Fresh blood samples were collected from male Japanese white rabbits weighing 2-3 kg. Blood was anticoagulated with citric acid (1 ml 3.8% citric acid solution +9 ml blood). These samples were centrifuged at room temperature for 20 min at 200×g to obtained platelet-rich plasma (PRP). Furthermore, the supernatant liquid was centrifuged for 10 min at 1500×g to obtained platelet-poor plasma (PPP). Aggregation of platelests was measured photometrically in a Nihon Kohden hema tracer equipped with a mechanical stirring device and with a chart record. At this time, the chart recorder was calibrated as follows: the light transmission obtained with PPP was set as 100% transmission and the optical density of PRP was taken as 0% transmission. Maximal aggregation, i.e. the maximal change in optical density of the primary wave calculated in percent light transmission. From the study, it was determined that ADP, Ap3A, PAF(platelet activating factor) and collagen induced maximal aggregations at a concentration of 1×10^-5 M, 1×10^-4 M, 1.9×10^-7 M and 5 μg/kg, respectively. In the following studies, these aggregating agents were used at maximal dose. The effect of Ap4A on platelet aggregation by ADP and Ap3A were tested. In this time, Ap4A was pretreated for 1 or 10 min before the addition of aggregating agents. […]

rats [2] = assay: Effects on cerebral blood flow, blood pressure and heart rate in anesthetized rats; format: in vivo, male SD rats; settings: rat
Protocol: Male SD rats (Charles River Japan Inc.) were anesthetized with intravenous urethane (0.5 g/kg)+α-chloralose (80 mg/kg).
A femoral artery was catheterized to monitor the blood pressure and heart rate, while a femoral vein was catheterized for the aministration of each of the test drugs.
The head of each rat was fixed to a brain position fixing device and a hole was made at a top portion of the cranium. A laser blood flow probe was mounted on the cranium so as to touch the surface of the cerebral cortex through the hole, whereby the cerebral blood flow thereof was measured. A predetermined amount of Ap4A was applied by bolus injection and by infusion.

[3] = words; cited from earlier work
rats [4] = assay: Gradual hypotension during anesthesia in rats; format: in vivo, male SD rats; settings: rat
Protocol: Male SD rats (Charles River Japan Inc.) were anesthetized with intravenous thiopental 50 mg/kg as a bolus, followed by 1% enflurane in air.
A femoral artery was catheterized to monitor the blood pressure and heart rate, while a femoral vein was catheterized for the administration of each of the test drugs.
(§1) The control values were obtained before the administration of each test drug. Each test drug was then administered using a syringe in a dose-dependent manner for 15 minutes. The percentage (%) of the decrease of blood pressure was determined when stabilized. Changes in heart rate (H.R.) at the administration of each test drug were measured. Furthermore,the recovery of mean blood pressure after intravenous infusion of each test drug was also determined from the decrease in heart rate and the blood pressure at a maximum dose of each test drug.

rats [5] = assay: Recovery of blood pressure after gradual hypotension in rats; format: in vivo, male SD rats; settings: rat
Protocol: FIG. 1 is a graph showing the recovery of the blood pressure of rats anesthetized with enflurane with time, when each of Ap4A ( ), PG E1 ( ) and nitroglycerin ( ) was used as a test drug to attain gradual hypotension, with the blood pressure before the administration of each test drug being set 100% for reference.
The recovery of blood pressure after gradual hypotension by use of each of Ap4A, PG E1 and nitroglycerin was also tested.
as §1
In a test similar to the above, each of Ap4A, PG E1, and nitroglycerin was administered to rats, so that about 65% fall in blood pressure, about 55% fall in blood pressure, and about 35% fall in blood pressure were stepwise attained. With respect to each agent, the recovery of blood pressure was tested.

blood pressure = assay: Gradual hypotension under halothane or urethane + α-chloralose anesthesia; format: in vivo; settings: halothane anesthesia; urethane (0.5 g/kg) + α-chloralose (80 mg/kg) anesthesia; words
[6] = system: rabbit platelet aggregation; assay: Inhibitory effect on rabbit platelet aggregation; format: cell-based; settings: for IC50: Oryctolagus cuniculus, Platelet
Protocol: Fresh blood samples were collected from male Japanese white rabbits weighing 2-3 kg. Blood was anticoagulated with citric acid (1 ml 3.8% citric acid solution +9 ml blood). These samples were centrifuged at room temperature for 20 min at 200×g to obtained platelet-rich plasma (PRP). Furthermore, the supernatant liquid was centrifuged for 10 min at 1500×g to obtained platelet-poor plasma (PPP). Aggregation of platelests was measured photometrically in a Nihon Kohden hema tracer equipped with a mechanical stirring device and with a chart record. At this time, the chart recorder was calibrated as follows: the light transmission obtained with PPP was set as 100% transmission and the optical density of PRP was taken as 0% transmission. Maximal aggregation, i.e. the maximal change in optical density of the primary wave calculated in percent light transmission. From the study, it was determined that ADP, Ap3A, PAF(platelet activating factor) and collagen induced maximal aggregations at a concentration of 1×10^-5 M, 1×10^-4 M, 1.9×10^-7 M and 5 μg/kg, respectively. In the following studies, these aggregating agents were used at maximal dose. The effect of Ap4A on platelet aggregation by ADP and Ap3A were tested. In this time, Ap4A was pretreated for 1 or 10 min before the addition of aggregating agents. Also, after the platelet aggregation was induced by addition of ADP, PAF or collagen to PRP, the platelet aggregate dispersing effect of Ap4A was tested.

[7] = enflurane, infusion 1 μg/kg/min
[8] = enflurane, infusion 3 μg/kg/min
[9] = enflurane, infusion 10 μg/kg/min
[10] = enflurane, infusion 30 μg/kg/min
[11] = enflurane, infusion 100 μg/kg/min
[12] = enflurane, infusion 300 μg/kg/min
[13] = enflurane, infusion 1000 μg/kg/min
[14] = enflurane, infusion 3000 μg/kg/min

Nc1ncnc2c1ncn2[C@@H]1O[C@H](COP(=O)(O)OP(=O)(O)OP(=O)(O)OP(=O)(O)OC[C@H]2O[C@@H](n3cnc4c(N)ncnc43)[C@H](O)[C@@H]2O)[C@@H](O)[C@H]1O [Ap4A, diadenosine 5',5'"-p^1,p^4 -tetraphosphate]
platelet aggregate dispersing effect [1]: Both ADP- and PAF-induced platelet aggregations were dispersed; also recorded: dispersing aggregated lumps formed by PAF (platelet activating factor) and ADP | B.P. Δ% (rats [2]; bolus injection 0.1 μg/kg): 0% | C.B.F. Δ% (rats [2]; bolus injection 0.1 μg/kg): 2.7% | H.R. Δ% (rats [2]; bolus injection 0.1 μg/kg): 4.0% | B.P. Δ% (rats [2]; bolus injection 0.3 μg/kg): 0% | C.B.F. Δ% (rats [2]; bolus injection 0.3 μg/kg): 7.9% | H.R. Δ% (rats [2]; bolus injection 0.3 μg/kg): -7.0% | B.P. Δ% (rats [2]; bolus injection 1 μg/kg): 5.0 ± 2.9% | C.B.F. Δ% (rats [2]; bolus injection 1 μg/kg): 9.3 ± 2.5% | H.R. Δ% (rats [2]; bolus injection 1 μg/kg): 10.3 ± 10.1% | B.P. Δ% (rats [2]; bolus injection 3 μg/kg): -6.2 ± 5.0% | C.B.F. Δ% (rats [2]; bolus injection 3 μg/kg): 10.0 ± 2.0% | H.R. Δ% (rats [2]; bolus injection 3 μg/kg): 4.6 ± 3.4% | B.P. Δ% (rats [2]; bolus injection 10 μg/kg): -9.9 ± 4.6% | C.B.F. Δ% (rats [2]; bolus injection 10 μg/kg): 21.7 ± 6.0% | H.R. Δ% (rats [2]; bolus injection 10 μg/kg): 3.2 ± 2.0% | B.P. Δ% (rats [2]; bolus injection 30 μg/kg): -23.2 ± 3.5% | C.B.F. Δ% (rats [2]; bolus injection 30 μg/kg): 16.8 ± 3.5% | H.R. Δ% (rats [2]; bolus injection 30 μg/kg): 6.4 ± 1.2% | B.P. Δ% (rats [2]; bolus injection 100 μg/kg): -34.4 ± 2.5% | C.B.F. Δ% (rats [2]; bolus injection 100 μg/kg): 15.8 ± 4.0% | H.R. Δ% (rats [2]; bolus injection 100 μg/kg): 7.4 ± 3.5% | B.P. Δ% (rats [2]; bolus injection 300 μg/kg): -40.5 ± 5.2% | C.B.F. Δ% (rats [2]; bolus injection 300 μg/kg): 9.8 ± 4.0% | H.R. Δ% (rats [2]; bolus injection 300 μg/kg): 10.9 ± 4.5% | B.P. Δ% (rats [2]; bolus injection 1 mg/kg): -50.4 ± 1.4% | C.B.F. Δ% (rats [2]; bolus injection 1 mg/kg): 8.5 ± 3.4% | H.R. Δ% (rats [2]; bolus injection 1 mg/kg): 7.4 ± 6.0% | B.P. Δ% (rats [2]; bolus injection 3 mg/kg): -54.0 ± 2.5% | C.B.F. Δ% (rats [2]; bolus injection 3 mg/kg): 23.7 ± 9.3% | H.R. Δ% (rats [2]; bolus injection 3 mg/kg): 6.2 ± 21.1% | B.P. Δ% (rats [2]; bolus injection 10 mg/kg): -63.5 ± 5.6% | C.B.F. Δ% (rats [2]; bolus injection 10 mg/kg): 46.3 ± 11.5% | H.R. Δ% (rats [2]; bolus injection 10 mg/kg): -78.8 ± 2.7% | B.P. Δ% (rats [2]; bolus injection 30 mg/kg): -60.7 ± 7.0% | C.B.F. Δ% (rats [2]; bolus injection 30 mg/kg): 34.0 ± 16.9% | cerebral blood flow (rats [2]; bolus injection, result in words): improved by bolus injection of Ap4A | increase in C.B.F. (rats [2]; bolus, when about 20-40% fall in blood pressure): 10-20% | cerebral blood flow (rats [2]; continuous administration, result in words (FIG. 2)): The same effects were also observed in the continuous administration of Ap4A; also recorded: Cerebral blood flow was increased during continuous administration of Ap4A | arrhythmic effect [3]: an arrhythmic effect | administration that gradually decreased blood pressure (rats [4]; enflurane): ≥ 10 µg/kg/min | fall in blood pressure (rats [4]; enflurane, 300 μg/kg/min): about 40% | fall in blood pressure (rats [4]; enflurane, 1000 μg/kg/min or more): ≥ 60% | Blood Pressure (Δ%) (rats [4]; [7]): 0% | Heart Rate (Δ%) (rats [4]; [7]): 0% | Blood Pressure (Δ%) (rats [4]; [8]): 0% | Heart Rate (Δ%) (rats [4]; [8]): 0% | Blood Pressure (Δ%) (rats [4]; [9]): -4.7 ± 0.6% | Heart Rate (Δ%) (rats [4]; [9]): 1.3 ± 0.6% | Blood Pressure (Δ%) (rats [4]; [10]): -10.2 ± 1.1% | Heart Rate (Δ%) (rats [4]; [10]): 2.7 ± 0.8% | Blood Pressure (Δ%) (rats [4]; [11]): -22.9 ± 1.2% | Heart Rate (Δ%) (rats [4]; [11]): 2.4 ± 1.0% | Blood Pressure (Δ%) (rats [4]; [12]): -43.5 ± 2.2% | Heart Rate (Δ%) (rats [4]; [12]): -6.6 ± 1.2% | Blood Pressure (Δ%) (rats [4]; [13]): -58.6 ± 1.8% | Heart Rate (Δ%) (rats [4]; [13]): -15.9 ± 1.9% | Blood Pressure (Δ%) (rats [4]; [14]): -65.8 ± 1.2% | Heart Rate (Δ%) (rats [4]; [14]): -24.9 ± 2.4% | decrease of heart rate (rats [4]; enflurane, result in words): A significant decrease of heart rate was observed at about 60% fall in blood pressure | stability of hypotensive effect at each dose (rats [4]; result in words): did not significantly change the blood pressure attained by each dose | recovered blood pressure (before administration = 100%) (rats [5]; 1 minute): about 70% | recovered blood pressure (before administration = 100%) (rats [5]; 5 minutes): about 90% | recovered blood pressure (before administration = 100%) (rats [5]; 10 minutes): 100% | fall in blood pressure attained before recovery (rats [5]; stepwise): about 65% | rapidness of the recovery of blood pressure (rats [5]; order in words): Ap4A>PG E1 >nitroglycerin | rebound hypertension (rats [5]; result in words): without rebound hypertension | gradual hypotensive effect (blood pressure): almost the same gradual hypotensive effect | time to submaximal/maximum anti-platelet aggregating effect [6]: ≤ 1 min | inhibition of platelet aggregation ([6]; ADP- and Ap3A-induced, result in words): Both ADP- and Ap3A-induced platelet aggregations were inhibited; also recorded: inhibits ADP-induced and Ap3A (diadenosine 5', 5'"-p^1,p^4 -triphosphate)-induced platelet-aggregation reactions | IC50 ([6]; read-out: Ap4A IC50, ADP (1 × 10^-5 M) induced, 1 min. pretreatment): 205 µM | IC50 ([6]; read-out: Ap4A IC50, ADP (1 × 10^-5 M) induced, 10 min. pretreatment): 42 µM | IC50 ([6]; read-out: Ap4A IC50, Ap3A (1 × 10^-4 M) induced, 1 min. pretreatment): 9.06 µM | IC50 ([6]; read-out: Ap4A IC50, Ap3A (1 × 10^-4 M) induced, 10 min. pretreatment): 49.9 µM | time to substantially maximum inhibitory effect ([6]; result in words): substantially maximum effect is obtained within one minute
